According to PubChem BioAssay (NCI):
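The compound was tested at five concentrations on cells cultured in 96-well plates, with a 48-hour exposure period. At the GI50, growth is halved. Definition used: TGI = concentration required for complete inhibition of growth.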

Legend:
Test in all cases: NCI tumour cell line growth inhibition, 48 h
RXF 393 renal = tested on: RXF 393 renal
SK-OV-3 ovarian = tested on: SK-OV-3 ovarian
RPMI-8226 leukemia = tested on: RPMI-8226 leukemia
OVCAR-3 ovarian = tested on: OVCAR-3 ovarian
OVCAR-4 ovarian = tested on: OVCAR-4 ovarian
HOP-92 NSCLC = tested on: HOP-92 NSCLC
OVCAR-8 ovarian = tested on: OVCAR-8 ovarian
A498 renal = tested on: A498 renal
HOP-62 NSCLC = tested on: HOP-62 NSCLC
MCF7 breast = tested on: MCF7 breast

Row | Compound | TGI (RXF 393 renal) [µM] | TGI (SK-OV-3 ovarian) [µM] | TGI (RPMI-8226 leukemia) [µM] | TGI (OVCAR-3 ovarian) [µM] | TGI (OVCAR-4 ovarian) [µM] | TGI (HOP-92 NSCLC) [µM] | TGI (OVCAR-8 ovarian) [µM] | TGI (A498 renal) [µM] | TGI (HOP-62 NSCLC) [µM] | GI50 (RXF 393 renal) [µM] | GI50 (SK-OV-3 ovarian) [µM] | GI50 (RPMI-8226 leukemia) [µM] | GI50 (A498 renal) [µM] | GI50 (OVCAR-3 ovarian) [µM] | GI50 (HOP-62 NSCLC) [µM] | GI50 (OVCAR-4 ovarian) [µM] | GI50 (MCF7 breast) [µM] | TGI (MCF7 breast) [µM] | GI50 (OVCAR-8 ovarian) [µM]
1 | CC(=O)OC1CCn2nnc(COC(=O)NC(C)C)c21 (stereo not drawn) | > 100 | > 100 | > 100 | > 100 | > 100 | > 100 | > 100 |  |  |  |  |  |  |  |  |  |  |  | 
2 | Cc1ccc(NC(=O)/C(CC(=O)c2c[n+](=O)c3ccccc3n2O)=N\NC(=O)C[n+]2ccccc2)cc1 | > 100 | > 100 | > 100 | > 100 | > 100 |  | > 100 | > 100 | > 100 |  |  |  |  |  |  |  |  |  | 
3 | CCc1c2c(nc3cc4c(cc13)OCO4)-c1cc3c(c(=O)n1C2)COC(=O)[C@@]3(CC)OC(=O)CN | < 0.0324 | < 0.0185 | 0.154 | 0.315 | 0.711 |  | 0.131 | 0.166 | < 0.01 | < 0.01 | < 0.01 | < 0.01 | < 0.0107 | < 0.01 | < 0.01 | 0.0244 | < 0.01 | < 0.0346 | < 0.01
4 | CC(c1ccc(Br)cc1)C(C(=O)O)C(=O)O (stereo not drawn) | > 100 | > 100 | > 100 | > 100 | > 100 |  | > 100 |  | > 100 |  |  |  |  |  |  |  |  |  | 
5 | CC(=O)N1CC2Nc3ccccc3C2CC1CO (stereo not drawn) | > 100 | > 100 | > 100 | > 100 | > 100 | > 100 | > 100 | > 100 | > 100 |  |  |  |  |  |  |  |  |  | 
6 | O=C1c2ccccc2C(=O)N1c1ccc(S(=O)(=O)Nc2ncccn2)cc1 | > 100 | > 100 | > 100 | > 100 | > 100 |  | > 100 | > 100 | > 100 | > 100 | > 100 | > 100 | > 100 | > 100 | > 100 | > 100 | > 100 | > 100 | > 100
7 | N#Cc1ccccc1C#C/C=C\C#Cc1ccc(OCCCNC(=O)c2cc3ccccc3[nH]2)cc1 | 52.2 | 54.5 |  | 41.4 | > 100 |  | 36.9 | 36.5 | 31.1 | 21.4 | 19.3 |  | 16.1 | 18.2 | 14.9 | 59 | 33.4 | > 100 | 16.2
8 | O=C(CCC(=O)Nc1ccc(Cl)cc1)CC(=O)c1ccc(F)cc1 |  | > 100 | > 100 | > 100 | > 100 | > 100 | > 100 |  | > 100 |  |  |  |  |  |  |  |  |  | 
9 | O=C1CCCC/C1=C/C=C/c1ccccc1 | > 100 | > 100 | > 100 | > 100 | > 100 | > 100 | > 100 | > 100 |  |  |  |  |  |  |  |  |  |  | 
10 | O=c1[nH]c(Br)nc2c(Br)c[nH]c12 | > 100 | > 100 | > 100 | > 100 | > 100 | > 100 | > 100 | > 100 | > 100 |  |  |  |  |  |  |  |  |  | 
11 | O=c1ccccc2cccc(O)c12 | > 100 | > 100 | > 100 | > 100 | > 100 | > 100 | > 100 | > 100 | > 100 |  |  |  |  |  |  |  |  |  | 
12 | COc1ccc2c3c1C(=O)CCC3CO2 (stereo not drawn) |  | > 100 | > 100 | > 100 | > 100 | > 100 | > 100 | > 100 | > 100 |  |  |  |  |  |  |  |  |  | 
13 | COc1ccc(O)c(C(=O)c2ccc(C(=O)O[C@@H]3CCCNC[C@H]3NC(=O)c3ccncc3)cc2)c1F | 0.839 | > 25 | > 25 | > 7.35 | > 25 |  | > 25 | 1.6 | > 25 | 0.162 | 0.946 | 1.25 | 0.189 | 0.961 | 0.514 | 7.9 | 0.275 | > 25 | 1.04
14 | CC1=CC(C)(C)N=C2SC(c3ccc(Cl)cc3)=NN12 |  | > 100 | 49.8 | 92.1 | > 100 | 61.5 |  | 83.6 | > 100 |  |  |  |  |  |  |  |  |  | 
15 | CN(C)CCn1c2ccccc2c2nc3cc4ccccc4cc3nc21 | 24.4 | 23.4 | 13.2 | 28.2 | 23.7 |  | 23 | 8.11 | 20.1 |  |  |  |  |  |  |  |  |  | 
16 | CCC[CH2][Sn]([CH2]CCC)([O]C(=O)c1cccc(F)c1)[O]C(=O)c1cccc(F)c1 | 0.758 | 3.45 | 2.02 | 2.17 | 3.83 |  | 2.6 | 1.98 | 3.38 | 0.185 | 1.84 | 0.329 | 0.467 | 0.956 | 1.91 | 2.05 |  |  | 1.22
17 | O=C(O)/C(=C/c1ccccc1[N+](=O)[O-])c1ccccc1 |  | > 100 | > 100 | > 100 | > 100 |  | > 100 | > 100 | > 100 |  |  |  |  |  |  |  |  |  | 
18 | CCCCCCCCCCCCCCCC(=O)OCC(O)C1OC(=O)C(O)=C1O (stereo not drawn) | 86.8 | > 100 |  | > 100 | > 100 |  |  | 77 | 60.3 |  |  |  |  |  |  |  |  | 4.81 | 

Row | Compound | TGI (RXF 393 renal) [µM] | TGI (SK-OV-3 ovarian) [µM] | TGI (RPMI-8226 leukemia) [µM] | TGI (OVCAR-3 ovarian) [µM] | TGI (OVCAR-4 ovarian) [µM] | TGI (HOP-92 NSCLC) [µM] | TGI (OVCAR-8 ovarian) [µM] | TGI (A498 renal) [µM] | TGI (HOP-62 NSCLC) [µM] | GI50 (RXF 393 renal) [µM] | GI50 (SK-OV-3 ovarian) [µM] | GI50 (RPMI-8226 leukemia) [µM] | GI50 (A498 renal) [µM] | GI50 (OVCAR-3 ovarian) [µM] | GI50 (HOP-62 NSCLC) [µM] | GI50 (OVCAR-4 ovarian) [µM] | GI50 (MCF7 breast) [µM] | TGI (MCF7 breast) [µM] | GI50 (OVCAR-8 ovarian) [µM]
19 | C=C1CC(CCCl)(c2ccccc2)OC1=O (stereo not drawn) | 47.7 | > 100 | 71.5 | 71.8 | > 100 | 34.2 | > 100 | > 100 | > 100 |  |  |  |  |  |  |  |  |  | 
20 | CCCNCc1nc2ccc(Br)cc2c(=O)n1CCC | 29.1 | 32.6 | > 100 | 32.5 | 27.7 |  | 26.7 | 32 | 36.9 |  |  |  |  |  |  |  |  |  | 
21 | N=C(N)SCCc1cn2ccccc2n1 |  |  | > 100 | > 100 | > 100 |  | > 100 |  | > 100 |  |  |  |  |  |  |  |  |  | 
22 | Cc1ccccc1C(=O)Oc1ccc(Oc2ccccc2)cc1 | > 100 | > 100 | > 100 | > 100 | > 100 |  | > 100 | > 100 | > 100 |  |  |  |  |  |  |  |  |  | 
23 | Nc1ccc(Nc2nc(F)nc(-c3c4ccccc4c4n3CCS4)n2)cc1 | 43.3 | 31.1 |  | 34.7 | 29.4 | 30.5 | 37.8 |  | 31.3 |  |  |  |  |  |  |  |  |  | 
24 | N=C(c1ccccc1)N(O)C1CCCCC1 | > 100 |  |  |  | > 100 | > 100 | > 100 |  | > 100 |  |  |  |  |  |  |  |  |  | 
25 | O=C(Nc1c(-c2nc3ccccc3[nH]2)sc(=S)n1-c1ccccc1)c1ccccc1 | > 100 | > 100 | > 100 | > 100 |  |  | > 100 | > 100 | > 100 |  |  |  |  |  |  |  |  |  | 
26 | O=C(OCCOCBr)c1ccccc1 |  | > 100 | > 100 | > 100 | > 100 | > 100 | > 100 | > 100 | > 100 |  |  |  |  |  |  |  |  |  | 
27 | O=C(COc1cccc(/C=C2\COc3ccccc3C2=O)c1)Nc1nccs1 |  | 31.1 | 3.69 | 3.51 | 14.3 |  | 11.2 | 29.2 | 15.9 |  | 17.4 | 1.29 | 15.7 | 2.03 | 4.11 | 3.99 | 1.24 | 5.69 | 3.4
28 | Cn1c(CCC#N)nc2ccc(Br)cc2c1=O | > 100 | > 100 | > 100 |  | > 100 | > 100 | > 100 | > 100 | > 100 |  |  |  |  |  |  |  |  |  | 
29 | COc1cc2c(c(OC)c1OC)-c1[nH]ncc1CC2 |  | > 100 |  | > 100 |  | > 100 | > 100 | > 100 | > 100 |  |  |  |  |  |  |  |  |  | 
30 | CCOC(=O)/N=C(\N)SCc1ccccc1 | > 100 | > 100 | > 100 |  | > 100 | > 100 | > 100 | > 100 | > 100 |  |  |  |  |  |  |  |  |  | 
31 | CC(C)C(=O)N[C@@H](C)C(=O)N(Cc1ccc2ccccc2c1)N=O |  | > 100 | > 100 | > 100 | > 100 |  | > 100 | > 100 | > 100 |  |  |  |  |  |  |  |  |  | 
32 | O=C(N/N=C1\CCc2ccccc2C1)N/N=C1\CCc2ccccc2C1 | > 10 |  | > 10 | > 10 | > 10 |  | > 10 |  | > 10 |  |  |  |  |  |  |  |  | > 10 | 
33 | O=c1/c(=C/c2ccc(Cl)cc2Cl)sc2nc3ccccc3n12 | > 100 | > 100 |  | > 100 | > 100 | > 100 | > 100 | > 100 | > 100 |  |  |  |  |  |  |  |  |  | 
34 | C(=C\c1csnn1)/c1cccnc1 | > 100 | > 100 | > 100 | > 100 | > 100 |  | > 100 | > 100 | > 100 |  |  |  |  |  |  |  |  |  | 
35 | O=c1c2ccc3cccc4c(=O)cc(c5ccccc15)-c2c34 | > 100 | > 100 |  | > 100 | > 100 |  | > 100 | > 100 | > 100 |  |  |  |  |  |  |  |  |  | 
36 | COc1cc(-c2[nH]ccc2Cl)oc1C1=C2N=C3C=C2C(C(C)C)C1CCCCCCCC3 (stereo not drawn) | 2.42 | 3.77 | 5.34 | 2.05 | 2.48 | 3.59 | 1.83 | 5.31 | 2.07 |  |  |  |  |  |  |  |  |  | 
